# According to patent publication US10370391B2, “Hydrogen peroxide-activable, anti-oxidant compounds and methods using same” (Beth Israel Deaconess Medical Center, Inc., priority 2014, dated 2019):
# Key:
# [1] = Reaction of BRAP with H2O2 monitored by 1H NMR in D2O; type: physicochemical
# Protocol: Since BRAP was designed to be rapidly oxidized by H2O2, generating HBA, boric acid and 2-(hydroxymethyl)-2-methylpropane-1,3-diol, the sensitivity of BRAP to H2O2 was investigated using ^1H NMR. BRAP was added to D2O containing H2O2 and the changes in the signal were monitored over time. In the presence of H2O2, BRAP was rapidly oxidized to generate HBA in a H2O2 concentration-dependent manner, confirmed by the appearance of new aromatic proton peaks at 6.8 and 7.2 ppm. In the presence of equimolar concentration of H2O2 (1 mM), a majority of boronic esters were cleaved within 30 minutes, with a half-life of hydrolysis of ˜5 minutes. Nearly all of boronic ester groups were cleaved by 5-fold excess of H2O2 (5 mM) within 5 minutes.
# TNF-α = TNF-α level in LPS-stimulated macrophage cells; type: cell-based, mouse
# Protocol: FIG. 4, comprising FIGS. 4A-4F, is a set of graphs, bar graphs and images illustrating anti-oxidant and anti-inflammatory effects of BRAP in vitro. […] The generation of ROS was monitored by flow cytometry as an indicator of DCF fluorescence. Fluorescence was analyzed in 10,000 cells with excitation at 480 nm and emission at 530 nm. FIG. 4C: Protective effect of BRAP on H2O2— stimulated adult rat cardiomyocytes. V=vehicle, *<0.05 vs. V+H2O2 (n=4). […] (n=4/group).
# The anti-inflammatory effects of BRAP on LPS-stimulated cells were investigated by measuring the level of inflammatory cytokines such as TNF-α (tumor necrosis factor-alpha) and iNOS (inducible nitric oxide synthases) (FIGS. 4E-4F). […] These observations indicate that BRAP, as well as BRAP-encapsulated PLGA microparticles, is able to scavenge overproduced H2O2 and serve as a H2O2-activable anti-oxidant. Further, the enhanced anti-oxidant activity of BRAP is derived from the combined effects of H2O2-scavenging boronic esters and HBA generation after H2O2-mediated boronate oxidation.
# cardiac I/R injury = experiment: Mouse model of cardiac I/R injury; type: in vivo
# Protocol: The beneficial effects of BRAP were further investigated using a mouse model of cardiac I/R injury in vivo. After 45 minutes of ischemia, BRAP (1.5 mg/kg) or vehicle was administered i.p. at the time of reperfusion, and then daily (1.5 mg/kg/day) for 2 weeks. For cardiac functional analysis, pressure-volume (PV) loop measurement and echocardiography were performed at 2 weeks after I/R surgery.
# Studies were then performed to determine whether the benefits of BRAP after I/R were associated with attenuation of oxidative stress, inflammation, and apoptosis. These mechanistic analyses were performed in heart tissues 24 hours after cardiac I/R injury. […] BRAP administration decreased TNF-α and MCP-1 expressions compared with vehicle-treated mice.
# Cardiac I/R surgery was performed in 12 week-old male mice as described in Choudhury, et al., 2011, Basic Res Cardiol 106:397. Briefly, mice were anaesthetized and placed on a rodent ventilator (model 687, Harvard Respirator). After thoracotomy, the left anterior descending artery (LAD) artery was identified and ligated with a 7-0 silk suture tied around a specialized 30 G-catheter. The animal remained under anesthesia and ventilation for 45 min of ischemia, after which reperfusion was achieved by cutting the suture and re-establishing arterial perfusion. Sham operated mice underwent the same procedure without LAD occlusion.
# Cardiac function was evaluated using the pressure-volume loop measurement and echocardiography 2 weeks after I/R as described in Lee, et al., 2013, Sci Rep 3:2233. Pressure-volume parameters were measured after isoflurane (2%) inhalant anesthesia using a 1.4 Fr. micro-tip pressure-volume catheter (Scisense Inc, Ontario, Canada) inserted into the right common carotid artery. The catheter was gently advanced into the left ventricle to obtain LV hemodynamic parameters. Data was recorded using a Powerlab system (ADInstruments, Colorado Springs, Colo.). Beat by beat pressure-volume parameters including heart rate (HR), stroke volume (SV), stroke work (SW) and cardiac output (CO) were measured and analyzed using CardioSoft Pro software (CardioSoft, Houston, Tex.). Transthoracic echocardiography was performed using a Vevo2100 ultra-high frequency small animal imaging system with MS400 transducer (18-38 MHz) (Visualsonics, Toronto, Canada).
# For liver apoptosis assay, terminal deoxynucleotidyl transferase dUTP nick end labeling (TUNEL) staining was performed using a DeadEnd™ Fluorometric TUNEL kit (Promega, Madison, Wis.). Tissue sections were stained for nuclei (4′,6-diamidino-2-phenylindole (DAPI) staining) and apoptotic nuclei (TUNEL staining) and analyzed using a confocal laser scanning microscope. For heart tissues, TUNEL staining was performed using in situ cell death detection Kit, fluorescein (Roche Applied Science, Indianapolis, Ind.). To distinguish cardiomyocyte from non-cardiomyocyte nuclei, triple stain for nuclei (DAPI staining), apoptotic nuclei (TUNEL staining), and cardiomyocytes (α-Actinin staining) was used, and the stained sections were analyzed using confocal microscopy. A minimum of ˜10 high power fields with ˜2000 nuclei/field were counted for each sample.
# The activity of caspase-3 was determined with colorimetric assay kit (R&D Systems, Minneapolis, Minn.) as described in Choudhury, et al., 2011, Basic Res Cardiol 106:397; Bae, et al., 2010, Am J Physiol Heart Circ Physiol 299:H1374. Briefly, protein samples were added to substrates of Acetyl-Asp-Glu-Val-Asp-p-nitroanilide. The enzyme-catalyzed release of p-nitroanilide was measured at 405 nm. For PARP activity assay, activity was measured at 450 nm by incorporation of biotinylated poly (ADP-ribose) onto histone-coated proteins in plate using colorimetric assay kit (R&D Systems, Minneapolis, Minn., USA).
# Heart tissues were collected for molecular analyses were performed in Bae, et al., 2010, Am J Physiol Heart Circ Physiol 299:H1374. […]
# [2] = 1.5 mg/kg i.p. at reperfusion then daily for 2 weeks
# [3] = 24 hours after I/R, compared with vehicle-treated mice
structure (smiles),measurement,setting,value
"CC1(CO)COB(c2ccc(CO)cc2)OC1 [BRAP, (4-(5-(hydroxymethyl)-5-methyl-1,3,2-dioxaborinan-2-yl)phenyl)methanol]",time in which nearly all of boronic ester groups were cleaved,[1]; 5-fold excess of H2O2 (5 mM),≤ 5 min
same,half-life at 1 mM,"[1]; D2O containing H2O2, equimolar concentration of H2O2 (1 mM), read-out: half-life of hydrolysis",~5 min
same,stability of boronic ester,"[1]; absence of H2O2, 3 days",remained intact
same,time in which a majority of boronic esters were cleaved,[1]; equimolar concentration of H2O2 (1 mM),≤ 30 min
same,TNF-α level,TNF-α,significantly suppressing
same,"I/R-induced cardiac dysfunction by PV loop analysis (CO, SW, EF)",cardiac I/R injury; [2],significantly attenuated
same,I/R-induced cardiac dysfunction by echocardiography (FS),cardiac I/R injury; [2],significantly attenuated
same,TUNEL-positive cardiomyocytes (apoptosis),cardiac I/R injury; 24 hours after I/R,effectively inhibited
same,caspase-3 activation in heart,cardiac I/R injury; 24 hours after I/R,effectively reduced
same,MCP-1 mRNA expression in heart,cardiac I/R injury; [3],decreased
same,TNF-α mRNA expression in heart,cardiac I/R injury; [3],decreased
same,DHE staining (ROS generation) in heart,cardiac I/R injury; heart tissue 24 hours after I/R,significantly decreased
